Assay results published in US4835168A, “Thiadiazole antiviral agents” (Eli Lilly and Company, priority 1988, dated 1989).
In brackets after ≈: the same amount, converted by molar mass. Entries after “also recorded” stand apart in the source; their conditions may differ. Structures can show the parent of a compound that is named as a salt. Where two headings read alike, the source gives them in different places.

Key:
[1] = Malinoski et al., Virology 1981; cited from earlier work
[2] = test system: influenza A1-Ann Arbor strain; test: in vivo mouse influenza test, survival index, relative activity (Table I); settings: CD-1 mice, 10 days
influenza B-Great Lake [3] = test: plaque-reduction study in MDCK cells (Table III); type: cell-based; settings: for IC50: MDCK, read-out: IC50, inhibition of plaque formation by 50 percent
influenza A-NWS = test: plaque-reduction study in MDCK cells (Table III); type: cell-based; settings: values marked *: one discordant test >50 not incorporated; for IC50: MDCK, read-out: IC50, inhibition of plaque formation by 50 percent
influenza Al-Ann Arbor [4] = test: plaque-reduction study in MDCK cells (Table III); type: cell-based; settings: for IC50: MDCK, read-out: IC50, inhibition of plaque formation by 50 percent
Semliki Forest = test: plaque-reduction test (Table V); type: cell-based; settings: BSCl cells, read-out: IC50, inhibition of plaque formation by 50 percent
RSV = test: in vivo antiviral test in hamster (Table IV); settings: reduction in nasal washing virus titer vs control
Procedure: (§1) As previously mentioned, in vivo antiviral test results may vary due to numerous factors. […] The compounds of Examples 1 and 7 were tested against several different viruses using different kinds of test animals and different modes of oral and topical administration. In Table IV below, Column 1 indicated the test compound, while Column 2 discloses the virus the compound was employed against. Columns 3 and 4 describe the test animal and the method of administration, respectively. Finally, Column 5 discloses whether or not antiviral activity was shown.

HIV = test: preliminary testing against retroviruses
HSV I = test: in vivo antiviral test in mouse (Table IV); settings: drinking water, more survivors than control
Procedure: as §1

Vaccinia = test: microbe, parasite or virus in culture; type: cell-based; settings: Orthopoxvirus vaccinia, read-out: IC50, inhibition of plaque formation by 50 percent
Parainfluenza (type 3) = test: plaque-reduction test (Table V); type: cell-based; settings: read-out: IC50, inhibition of plaque formation by 50 percent
[5] = test system: Vesicular Stomatitus Virus; test: in vitro activity against Vesicular Stomatitus Virus; type: cell-based
HSV II = test: in vivo antiviral test in guinea pig (Table IV); settings: topical cream, fewer lesions than control
Procedure: as §1

Herpes I = test: plaque-reduction test (Table V); type: cell-based; settings: BSCl cells, read-out: IC50, inhibition of plaque formation by 50 percent
Herpes II = test: plaque-reduction test (Table V); type: cell-based; settings: BSCl cells, read-out: IC50, inhibition of plaque formation by 50 percent
Friend Leukemia = test: preliminary testing against retroviruses
[6] = in vivo conversion to salt form of the compound of Example 6
influenza B-Maryland = test: survival of infected mice, oral in diet (Table II); type: in vivo; settings: control 14/50
Source text: (§2) Again, due to the nature of in vivo antiviral tests the in vivo antiviral influenza activity of the compounds can vary. […] A typical test would run for at least ten days.

influenza A-Brazil = test: survival of infected mice, oral in diet (Table II); type: in vivo; settings: control 10/28
Source text: as §2

influenza B-Hong Kong = test: survival of infected mice, oral in diet (Table II); type: in vivo; settings: control 4/50
Source text: as §2

influenza Al-Ann Arbor [7] = test: survival of infected mice, oral in diet (Table II); type: in vivo; settings: control 0/50
Source text: as §2

influenza B-Taiwan = test: survival of infected mice, oral in diet (Table II); type: in vivo; settings: control 1/36
Source text: as §2

influenza B-Great Lake [8] = test: survival of infected mice, oral in diet (Table II); type: in vivo; settings: control 3/36
Source text: as §2

influenza A-Texas = test: survival of infected mice, oral in diet (Table II); type: in vivo; settings: control 8/36
Source text: as §2

Nc1nncs1 [2-amino-1,3,4-thiadiazole]
antiviral activity [1]: certain antiviral activity

N#CCSC(N)=Nc1nncs1 [Example 5, N^1-1,3,4-thiadiazol-2-ylcarbamimidothioic acid, cyanomethyl ester]
RA (relative activity index from P, percent of maximum survival index) [2]: 2.5

NC(=Nc1nncs1)SCc1ccccn1 [Example 4, N^1-1,3,4-thiadiazol-2-ylcarbamimidothioic acid, 2-pyridinylmethyl ester, hydrochloride]
IC50 (influenza B-Great Lake [3]): > 50 µg/mL
RA (relative activity index from P, percent of maximum survival index) [2]: 2.5
IC50 (influenza A-NWS): > 50 µg/mL

NC(N)=Nc1nncs1 [Example 8, 1,3,4-Thiadiazole-2-guanidine]
IC50 (influenza Al-Ann Arbor [4]): 0.02 µg/mL (≈ 0.14 µM)
IC50 (influenza B-Great Lake [3]): 0.27 µg/mL (≈ 1.89 µM)

N#CNc1nncs1 [Example 7, 1,3,4-Thiadiazole-2-cyanamide Sodium salt]
IC50, inhibition of plaque formation by 50 percent (influenza Al-Ann Arbor [4]; Sodium salt): 0.82 MCG/ML
IC50 (Semliki Forest): < 0.23 µg/mL
antiviral activity shown (Result) (RSV; food): active
activity against retroviruses (HIV): failed to demonstrate conclusive activity
antiviral activity shown (Result) (HSV I): active
IC50, inhibition of plaque formation by 50 percent (influenza B-Great Lake [3]; Sodium salt): 1.00 MCG/ML
IC50 (Vaccinia; Vero): 0.29 µg/mL
IC50 (Vaccinia): < 0.31 µg/mL
IC50 (Parainfluenza (type 3); BSCl cells): 0.14 µg/mL
IC50 (Parainfluenza (type 3); HELA cells): 0.72 µg/mL
in vitro activity against Vesicular Stomatitus Virus [5]: does not
antiviral activity shown (Result) (HSV II): active
IC50 (Herpes I): 2.95 µg/mL
IC50, inhibition of plaque formation by 50 percent (influenza A-NWS; Sodium salt): 0.58 MCG/ML
IC50 (Herpes II): 0.19 µg/mL
activity against retroviruses (Friend Leukemia): failed to demonstrate conclusive activity

N#CNc1nncs1 [Example 6, 1,3,4-Thiadiazole-2-cyanamide]
IC50 (influenza Al-Ann Arbor [4]): 0.85 µg/mL (≈ 6.74 µM)
IC50, inhibition of plaque formation by 50 percent (influenza B-Great Lake [3]): 2.25 MCG/ML
IC50 (influenza A-NWS): 0.78 µg/mL (≈ 6.18 µM)

C=COC(=O)NC(=S)Nc1nncs1 [Preparation 6, [(1,3,4-thiadiazol-2-ylamino)thioxomethyl]carbamic acid, vinyl ester]
RA (relative activity index from P, percent of maximum survival index) [2]: 4 (60-80% = 4 (good activity))

CCOC(=O)N=C(Nc1nncs1)SCC [Preparation 8]
RA (relative activity index from P, percent of maximum survival index) [2]: 5 (80-100% = 5 (very active))
IC50 (influenza A-NWS): > 50 µg/mL

COC(=O)NC(=S)Nc1nncs1 [Preparation 5, [(1,3,4-thiadiazol-2-ylamino)thioxomethyl]carbamic acid, methyl ester]
RA (relative activity index from P, percent of maximum survival index) [2]: 5 (80-100% = 5 (very active))

CSC(N)=Nc1nncs1 [Example 1, N^1-1,3,4-thiadiazol-2-ylcarbamimidothioic acid, methyl ester]
IC50 (influenza Al-Ann Arbor [4]): 0.68 µg/mL (≈ 3.9 µM)
IC50 (Semliki Forest): 43 µg/mL (≈ 247 µM)
antiviral activity shown (Result) (RSV; drinking water): active
antiviral activity shown (Result) (HSV I): active
IC50 (influenza B-Great Lake [3]): 16.3 µg/mL (≈ 93.5 µM)
IC50 (Vaccinia): 15.8 µg/mL (≈ 90.7 µM)
RA (relative activity index from P, percent of maximum survival index) [2]: 5 (80-100% = 5 (very active))
conversion in vivo to a salt form of the compound of Example 6 [6]: converted to a salt form of the compound of Example 6; also recorded: converted in vivo to a salt form
IC50 (Parainfluenza (type 3); BSCl cells): 4.5 µg/mL (≈ 25.8 µM)
IC50 (Parainfluenza (type 3); HELA cells): > 25 µg/mL
IC50 (Herpes I): 9.6 µg/mL (≈ 55.1 µM)

CCOC(=O)N=C(Nc1nncs1)SC [Preparation 7, [(Methylthio)(1,3,4-thiadiazol-2-ylamino)methyl]carbamic acid, ethyl ester]
RA (relative activity index from P, percent of maximum survival index) [2]: 5 (80-100% = 5 (very active))
IC50 (influenza A-NWS): 75.5 µg/mL (≈ 307 µM)

CCCCCCOC(=O)NC(=S)Nc1nncs1 [Preparation 4, [(1,3,4-Thiadiazol-2-ylamino)thioxomethyl]carbamic acid, n-hexyl ester]
RA (relative activity index from P, percent of maximum survival index) [2]: 5 (80-100% = 5 (very active))

O=C(NC(=S)Nc1nncs1)Oc1ccccc1 [Preparation 3, [(1,3,4-Thiadiazol-2-ylamino)thioxomethyl]carbamic acid, phenyl ester]
RA (relative activity index from P, percent of maximum survival index) [2]: 5 (80-100% = 5 (very active))
IC50 (influenza A-NWS): < 1.6 µg/mL

CCSC(N)=Nc1nncs1 [Example 2, N^1-1,3,4-thiadiazol-2-ylcarbamimidothioic acid, ethyl ester]
IC50 (influenza B-Great Lake [3]): 9.5 µg/mL (≈ 50.5 µM)
RA (relative activity index from P, percent of maximum survival index) [2]: 5 (80-100% = 5 (very active))
IC50 (influenza A-NWS): 18.9 µg/mL (≈ 100 µM)

CCCCSC(N)=Nc1nncs1 [Example 3, N^1-1,3,4-thiadiazol-2-ylcarbamimidothioic acid, n-butyl ester]
IC50 (influenza B-Great Lake [3]): > 50 µg/mL
RA (relative activity index from P, percent of maximum survival index) [2]: 5 (80-100% = 5 (very active))
IC50 (influenza A-NWS): 21.3 µg/mL (≈ 98.5 µM)

CCOC(=O)NC(=S)Nc1nncs1 [Preparation 1, [(1,3,4-Thiadiazol-2-ylamino)thioxomethyl]carbamic acid, ethyl ester]
IC50 (influenza B-Great Lake [3]): > 50 µg/mL
RA (relative activity index from P, percent of maximum survival index) [2]: 4.5
IC50 (influenza A-NWS): 43 µg/mL (≈ 185 µM)

NC(=S)Nc1nncs1 [Preparation 2, 1,3,4-Thiadiazol-2-ylthiourea]
IC50 (influenza Al-Ann Arbor [4]): > 50 µg/mL
IC50 (influenza B-Great Lake [3]): 7 µg/mL (≈ 43.7 µM)
in vitro activity against Vesicular Stomatitus Virus [5]: displays in vitro activity
IC50 (influenza A-NWS): 3.6 µg/mL (≈ 22.5 µM)
number of animals surviving over number tested (S/N) (influenza B-Maryland; 60 mg/kg/day): 19/20
number of animals surviving over number tested (S/N) (influenza B-Maryland; 120 mg/kg/day): 20/20
number of animals surviving over number tested (S/N) (influenza A-Brazil; 15 mg/kg/day): 5/15
number of animals surviving over number tested (S/N) (influenza A-Brazil; 30 mg/kg/day): 5/16
number of animals surviving over number tested (S/N) (influenza A-Brazil; 60 mg/kg/day): 12/18
number of animals surviving over number tested (S/N) (influenza A-Brazil; 120 mg/kg/day): 14/18
number of animals surviving over number tested (S/N) (influenza B-Hong Kong; 60 mg/kg/day): 10/20
number of animals surviving over number tested (S/N) (influenza B-Hong Kong; 120 mg/kg/day): 16/20
number of animals surviving over number tested (S/N) (influenza Al-Ann Arbor [7]; 60 mg/kg/day): 20/20
number of animals surviving over number tested (S/N) (influenza Al-Ann Arbor [7]; 120 mg/kg/day): 20/20
number of animals surviving over number tested (S/N) (influenza B-Taiwan; 15 mg/kg/day): 4/18
number of animals surviving over number tested (S/N) (influenza B-Taiwan; 30 mg/kg/day): 15/18
number of animals surviving over number tested (S/N) (influenza B-Taiwan; 60 mg/kg/day): 18/18
number of animals surviving over number tested (S/N) (influenza B-Taiwan; 120 mg/kg/day): 18/18
number of animals surviving over number tested (S/N) (influenza B-Great Lake [8]; 15 mg/kg/day): 11/18
number of animals surviving over number tested (S/N) (influenza B-Great Lake [8]; 30 mg/kg/day): 16/18
number of animals surviving over number tested (S/N) (influenza B-Great Lake [8]; 60 mg/kg/day): 17/18
number of animals surviving over number tested (S/N) (influenza B-Great Lake [8]; 120 mg/kg/day): 18/18
number of animals surviving over number tested (S/N) (influenza A-Texas; 15 mg/kg/day): 5/18
number of animals surviving over number tested (S/N) (influenza A-Texas; 30 mg/kg/day): 8/18
number of animals surviving over number tested (S/N) (influenza A-Texas; 60 mg/kg/day): 12/18
number of animals surviving over number tested (S/N) (influenza A-Texas; 120 mg/kg/day): 16/18
